Each structure is given as a SMILES string. Some results are limits rather than exact numbers.

The text below walks through data of BindingDB's records for doi:10.1016/s0960-894x(99)00004-9 (Smithkline Beecham Pharmaceuticals, 1999).

Assay [1] is described as follows: Inhibitory activity against Varicella Zoster Virus (VZV) protease was determined using quenched fluorescence assay.
The nature of assay [2]: Inhibitory activity against cytomegalovirus (CMV) protease was determined using quenched fluorescence assay.

For the molecule `Cc1cc(/C=C/C(=O)N[C@@H](C)c2nc3scc(C)c3c(=O)o2)c(C)s1` [(E)-3-(2,5-Dimethyl-thiophen-3-yl)-N-[(S)-1-(5-methyl-4-oxo-4H-thieno[2,3-d][1,3]oxazin-2-yl)-ethyl]-acrylamide], the IC50 in assay [1] amounted to 7 nM; in assay [2], 230 nM.

As for `Cc1csc2nc([C@H](C)NC(=O)/C=C/c3c(Cl)cccc3Cl)oc(=O)c12` [(E)-3-(2,6-Dichloro-phenyl)-N-[(S)-1-(5-methyl-4-oxo-4H-thieno[2,3-d][1,3]oxazin-2-yl)-ethyl]-acrylamide], the half-maximal inhibitory concentration (IC50) in assay [1] was 10 nM; in assay [2], above 34000 nM.

With `Cc1csc2nc([C@H](C)NC(=O)/C=C/c3c(F)cccc3F)oc(=O)c12` [(E)-3-(2,6-Difluoro-phenyl)-N-[(S)-1-(5-methyl-4-oxo-4H-thieno[2,3-d][1,3]oxazin-2-yl)-ethyl]-acrylamide], the values for the IC50 in assay [1] and in assay [2] were 60 nM and 1700 nM, respectively.

`COc1cccc(OC)c1/C=C/C(=O)N[C@@H](C)c1nc2scc(C)c2c(=O)o1` [(E)-3-(2,6-Dimethoxy-phenyl)-N-[(S)-1-(5-methyl-4-oxo-4H-thieno[2,3-d][1,3]oxazin-2-yl)-ethyl]-acrylamide]: the 50% inhibitory concentration (IC50) in assay [1] amounted to 180 nM; in assay [2], 21000 nM.

Take `Cc1csc2nc([C@H](C)NC(=O)/C=C/c3ccccc3Br)oc(=O)c12` [(E)-3-(2-Bromo-phenyl)-N-[(S)-1-(5-methyl-4-oxo-4H-thieno[2,3-d][1,3]oxazin-2-yl)-ethyl]-acrylamide]: the IC50 was 39 nM in assay [1] and 380 nM in assay [2].

On to `Cc1csc2nc([C@H](C)NC(=O)/C=C/c3ccsc3Br)oc(=O)c12` [(E)-3-(2-Bromo-thiophen-3-yl)-N-[(S)-1-(5-methyl-4-oxo-4H-thieno[2,3-d][1,3]oxazin-2-yl)-ethyl]-acrylamide], for which the half-inhibitory concentration (IC50) in assay [1] amounted to 51 nM; in assay [2], 620 nM.

`Cc1csc2nc([C@H](C)NC(=O)/C=C/c3ccc(O)cc3Cl)oc(=O)c12` [(E)-3-(2-Chloro-4-hydroxy-phenyl)-N-[(S)-1-(5-methyl-4-oxo-4H-thieno[2,3-d][1,3]oxazin-2-yl)-ethyl]-acrylamide] registered an IC50 in assay [1] of 15 nM.

Regarding `Cc1csc2nc([C@H](C)NC(=O)/C=C/c3c(F)cccc3Cl)oc(=O)c12` [(E)-3-(2-Chloro-6-fluoro-phenyl)-N-[(S)-1-(5-methyl-4-oxo-4H-thieno[2,3-d][1,3]oxazin-2-yl)-ethyl]-acrylamide], the IC50 in assay [1] amounted to 36 nM; in assay [2] it was 2000 nM.

Turning to `Cc1csc2nc([C@H](C)NC(=O)/C=C/c3ccccc3Cl)oc(=O)c12` [(E)-3-(2-Chloro-phenyl)-N-[(S)-1-(5-methyl-4-oxo-4H-thieno[2,3-d][1,3]oxazin-2-yl)-ethyl]-acrylamide], the values for the IC50 in assay [1] and in assay [2] were 35 nM and 380 nM, respectively.

Take `CCOc1ccccc1/C=C/C(=O)N[C@@H](C)c1nc2scc(C)c2c(=O)o1` [(E)-3-(2-Ethoxy-phenyl)-N-[(S)-1-(5-methyl-4-oxo-4H-thieno[2,3-d][1,3]oxazin-2-yl)-ethyl]-acrylamide]: the IC50 in assay [1] is 15 nM; in assay [2], 510 nM.

As to `COc1cc(/C=C/C(=O)N[C@@H](C)c2nc3scc(C)c3c(=O)o2)cc(OC)c1` [(E)-3-(3,5-Dimethoxy-phenyl)-N-[(S)-1-(5-methyl-4-oxo-4H-thieno[2,3-d][1,3]oxazin-2-yl)-ethyl]-acrylamide], the IC50 in assay [1] came to 21 nM; in assay [2], 8500 nM.

On to `Cc1csc2nc([C@H](C)NC(=O)/C=C/c3sccc3Br)oc(=O)c12` [(E)-3-(3-Bromo-thiophen-2-yl)-N-[(S)-1-(5-methyl-4-oxo-4H-thieno[2,3-d][1,3]oxazin-2-yl)-ethyl]-acrylamide], for which the IC50 in assay [1] was 58 nM; in assay [2], 1110 nM.

In assay [1], `Cc1csc2nc([C@H](C)NC(=O)/C=C/c3cccc(Cl)c3)oc(=O)c12` [(E)-3-(3-Chloro-phenyl)-N-[(S)-1-(5-methyl-4-oxo-4H-thieno[2,3-d][1,3]oxazin-2-yl)-ethyl]-acrylamide] showed an IC50 of 42 nM.

`Cc1csc2nc([C@H](C)NC(=O)/C=C/c3cc(Br)cs3)oc(=O)c12` [(E)-3-(4-Bromo-thiophen-2-yl)-N-[(S)-1-(5-methyl-4-oxo-4H-thieno[2,3-d][1,3]oxazin-2-yl)-ethyl]-acrylamide]: the concentration for half-maximal inhibition (IC50) worked out at 33 nM in assay [1] and 1120 nM in assay [2].

In the case of `Cc1csc2nc([C@H](C)NC(=O)/C=C/c3ccc(N(C)C)cc3)oc(=O)c12` [(E)-3-(4-Dimethylamino-phenyl)-N-[(S)-1-(5-methyl-4-oxo-4H-thieno[2,3-d][1,3]oxazin-2-yl)-ethyl]-acrylamide], the 50% inhibitory concentration (IC50) in assay [1] worked out at 38 nM; in assay [2], 1800 nM.

As to `Cc1csc2nc([C@H](C)NC(=O)/C=C/c3ccc(C=O)cc3)oc(=O)c12` [(E)-3-(4-Formyl-phenyl)-N-[(S)-1-(5-methyl-4-oxo-4H-thieno[2,3-d][1,3]oxazin-2-yl)-ethyl]-acrylamide], the results for the IC50 in assay [1] and in assay [2] were 94 nM and 2400 nM, respectively.

Regarding `Cc1csc2nc([C@H](C)NC(=O)/C=C/c3ccc(Br)o3)oc(=O)c12` [(E)-3-(5-Bromo-furan-2-yl)-N-[(S)-1-(5-methyl-4-oxo-4H-thieno[2,3-d][1,3]oxazin-2-yl)-ethyl]-acrylamide], the IC50 in assay [1] was found to be 41 nM; in assay [2], 180 nM.

Consider `Cc1csc2nc([C@H](C)NC(=O)/C=C/c3ccc(Br)s3)oc(=O)c12` [(E)-3-(5-Bromo-thiophen-2-yl)-N-[(S)-1-(5-methyl-4-oxo-4H-thieno[2,3-d][1,3]oxazin-2-yl)-ethyl]-acrylamide], for which the values for the IC50 in assay [1] and in assay [2] were 8 nM and 210 nM, respectively.

Turning to `Cc1csc2nc([C@H](C)NC(=O)/C=C/c3ccc(Cl)s3)oc(=O)c12` [(E)-3-(5-Chloro-thiophen-2-yl)-N-[(S)-1-(5-methyl-4-oxo-4H-thieno[2,3-d][1,3]oxazin-2-yl)-ethyl]-acrylamide], the IC50 in assay [1] turned out to be 17 nM; in assay [2], 280 nM.

Turning to `Cc1csc2nc([C@H](C)NC(=O)/C=C/c3cccn3C)oc(=O)c12` [(E)-N-[(S)-1-(5-Methyl-4-oxo-4H-thieno[2,3-d][1,3]oxazin-2-yl)-ethyl]-3-(1-methyl-1H-pyrrol-2-yl)-acrylamide], the 50% inhibitory concentration (IC50) in assay [1] came out at 29 nM; in assay [2], 220 nM.

Take `Cc1csc2nc([C@H](C)NC(=O)/C=C/c3ccccc3[N+](=O)[O-])oc(=O)c12` [(E)-N-[(S)-1-(5-Methyl-4-oxo-4H-thieno[2,3-d][1,3]oxazin-2-yl)-ethyl]-3-(2-nitro-phenyl)-acrylamide]: the values for the IC50 in assay [1] and in assay [2] were 76 nM and 2200 nM, respectively.

Consider `Cc1ccsc1/C=C/C(=O)N[C@@H](C)c1nc2scc(C)c2c(=O)o1` [(E)-N-[(S)-1-(5-Methyl-4-oxo-4H-thieno[2,3-d][1,3]oxazin-2-yl)-ethyl]-3-(3-methyl-thiophen-2-yl)-acrylamide], for which the IC50 amounted to 290 nM in assay [1] and 670 nM in assay [2].

Regarding `Cc1csc2nc([C@H](C)NC(=O)/C=C/c3ccc([N+](=O)[O-])cc3)oc(=O)c12` [(E)-N-[(S)-1-(5-Methyl-4-oxo-4H-thieno[2,3-d][1,3]oxazin-2-yl)-ethyl]-3-(4-nitro-phenyl)-acrylamide], the IC50 was 60 nM in assay [1] and 3600 nM in assay [2].

With `Cc1ccc(/C=C/C(=O)N[C@@H](C)c2nc3scc(C)c3c(=O)o2)s1` [(E)-N-[(S)-1-(5-Methyl-4-oxo-4H-thieno[2,3-d][1,3]oxazin-2-yl)-ethyl]-3-(5-methyl-thiophen-2-yl)-acrylamide], the half-inhibitory concentration (IC50) amounted to 33 nM in assay [1] and 580 nM in assay [2].

Turning to `Cc1csc2nc([C@H](C)NC(=O)/C=C/c3ccc([N+](=O)[O-])s3)oc(=O)c12` [(E)-N-[(S)-1-(5-Methyl-4-oxo-4H-thieno[2,3-d][1,3]oxazin-2-yl)-ethyl]-3-(5-nitro-thiophen-2-yl)-acrylamide], the IC50 in assay [1] is 54 nM; in assay [2] it was 900 nM.

For `Cc1ccccc1/C=C/C(=O)N[C@@H](C)c1nc2scc(C)c2c(=O)o1` [(E)-N-[(S)-1-(5-Methyl-4-oxo-4H-thieno[2,3-d][1,3]oxazin-2-yl)-ethyl]-3-o-tolyl-acrylamide], inhibition in assay [1] was half-maximal at 36 nM (IC50).

Take `Cc1csc2nc([C@H](C)NC(=O)/C=C(\c3ccccc3)c3cccs3)oc(=O)c12` [(E)-N-[(S)-1-(5-Methyl-4-oxo-4H-thieno[2,3-d][1,3]oxazin-2-yl)-ethyl]-3-phenyl-3-thiophen-2-yl-acrylamide]: the values for the IC50 in assay [1] and in assay [2] were 16 nM and 300 nM, respectively.

For the molecule `Cc1csc2nc([C@H](C)NC(=O)/C=C/c3ccccc3)oc(=O)c12` [(E)-N-[(S)-1-(5-Methyl-4-oxo-4H-thieno[2,3-d][1,3]oxazin-2-yl)-ethyl]-3-phenyl-acrylamide], the half-inhibitory concentration (IC50) came to 38 nM in assay [1] and 500 nM in assay [2].

Regarding `Cc1csc2nc([C@H](C)NC(=O)/C=C/c3ccccn3)oc(=O)c12` [(E)-N-[(S)-1-(5-Methyl-4-oxo-4H-thieno[2,3-d][1,3]oxazin-2-yl)-ethyl]-3-pyridin-2-yl-acrylamide], the values for the IC50 in assay [1] and in assay [2] were 170 nM and 1240 nM, respectively.

Regarding `Cc1csc2nc([C@H](C)NC(=O)/C=C/c3ccnc4ccccc34)oc(=O)c12` [(E)-N-[(S)-1-(5-Methyl-4-oxo-4H-thieno[2,3-d][1,3]oxazin-2-yl)-ethyl]-3-quinolin-4-yl-acrylamide], the results for the IC50 in assay [1] and in assay [2] were 19 nM and 1100 nM, respectively.

With `Cc1csc2nc([C@H](C)NC(=O)/C=C/c3ccsc3)oc(=O)c12` [(E)-N-[(S)-1-(5-Methyl-4-oxo-4H-thieno[2,3-d][1,3]oxazin-2-yl)-ethyl]-3-thiophen-3-yl-acrylamide], in assay [1], the IC50 came out at 89 nM.

`Cc1csc2nc([C@H](C)NC(=O)C=C(c3cccs3)c3cccs3)oc(=O)c12` [N-[(S)-1-(5-Methyl-4-oxo-4H-thieno[2,3-d][1,3]oxazin-2-yl)-ethyl]-3,3-di-thiophen-2-yl-acrylamide]: the IC50 in assay [1] turned out to be 42 nM; in assay [2], 250 nM.

For the molecule `Cc1csc2nc([C@H](C)NC(=O)C=C(c3ccccc3)c3ccccc3)oc(=O)c12` [N-[(S)-1-(5-Methyl-4-oxo-4H-thieno[2,3-d][1,3]oxazin-2-yl)-ethyl]-3,3-diphenyl-acrylamide], the IC50 was determined as 37 nM in assay [1] and 910 nM in assay [2].
